Where “and” joins values, the source holds several entries; their conditions need not be identical. Equal entries are not always repeated.
Key:
[1] = Animal weight of tumor-bearing mice
MMNK1 cholangiocytes = test: Growth inhibition (alamarBlue, 96 h); format: cell-based, human; settings: MMNK, replicates
[2] = tested on: Ba/F3 KIF5B–RET^G810R allograft tumors; test: Subcutaneous allograft efficacy study; format: in vivo, BALB/c nude mice; settings: in mm³ (unit assumed);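 also: mean tumor volume per dosing group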
[3] = biological target: T1, panel of 255 (vepafestinib) or 256 (all other inhibitors) recombinant kinases (Homo sapiens, UniProt P16234); test: Kinase selectivity profiling at a single concentration (Carna Biosciences); format: biochemical; settings: 23 nM
T1 construct: purchased Carna Biosciences

[4] = biological target: T2, panel of 255 (vepafestinib) or 256 (all other inhibitors) recombinant kinases (Homo sapiens, UniProt P35916); test: as above; format: biochemical; settings: 23 nM
T2 construct: purchased Carna Biosciences

[5] = biological target: panel of 255 (vepafestinib) or 256 (all other inhibitors) recombinant kinases; test: as above; format: biochemical; settings: 23 nM, panel of 255 recombinant kinases

T2 sequence (P35916 25-1363): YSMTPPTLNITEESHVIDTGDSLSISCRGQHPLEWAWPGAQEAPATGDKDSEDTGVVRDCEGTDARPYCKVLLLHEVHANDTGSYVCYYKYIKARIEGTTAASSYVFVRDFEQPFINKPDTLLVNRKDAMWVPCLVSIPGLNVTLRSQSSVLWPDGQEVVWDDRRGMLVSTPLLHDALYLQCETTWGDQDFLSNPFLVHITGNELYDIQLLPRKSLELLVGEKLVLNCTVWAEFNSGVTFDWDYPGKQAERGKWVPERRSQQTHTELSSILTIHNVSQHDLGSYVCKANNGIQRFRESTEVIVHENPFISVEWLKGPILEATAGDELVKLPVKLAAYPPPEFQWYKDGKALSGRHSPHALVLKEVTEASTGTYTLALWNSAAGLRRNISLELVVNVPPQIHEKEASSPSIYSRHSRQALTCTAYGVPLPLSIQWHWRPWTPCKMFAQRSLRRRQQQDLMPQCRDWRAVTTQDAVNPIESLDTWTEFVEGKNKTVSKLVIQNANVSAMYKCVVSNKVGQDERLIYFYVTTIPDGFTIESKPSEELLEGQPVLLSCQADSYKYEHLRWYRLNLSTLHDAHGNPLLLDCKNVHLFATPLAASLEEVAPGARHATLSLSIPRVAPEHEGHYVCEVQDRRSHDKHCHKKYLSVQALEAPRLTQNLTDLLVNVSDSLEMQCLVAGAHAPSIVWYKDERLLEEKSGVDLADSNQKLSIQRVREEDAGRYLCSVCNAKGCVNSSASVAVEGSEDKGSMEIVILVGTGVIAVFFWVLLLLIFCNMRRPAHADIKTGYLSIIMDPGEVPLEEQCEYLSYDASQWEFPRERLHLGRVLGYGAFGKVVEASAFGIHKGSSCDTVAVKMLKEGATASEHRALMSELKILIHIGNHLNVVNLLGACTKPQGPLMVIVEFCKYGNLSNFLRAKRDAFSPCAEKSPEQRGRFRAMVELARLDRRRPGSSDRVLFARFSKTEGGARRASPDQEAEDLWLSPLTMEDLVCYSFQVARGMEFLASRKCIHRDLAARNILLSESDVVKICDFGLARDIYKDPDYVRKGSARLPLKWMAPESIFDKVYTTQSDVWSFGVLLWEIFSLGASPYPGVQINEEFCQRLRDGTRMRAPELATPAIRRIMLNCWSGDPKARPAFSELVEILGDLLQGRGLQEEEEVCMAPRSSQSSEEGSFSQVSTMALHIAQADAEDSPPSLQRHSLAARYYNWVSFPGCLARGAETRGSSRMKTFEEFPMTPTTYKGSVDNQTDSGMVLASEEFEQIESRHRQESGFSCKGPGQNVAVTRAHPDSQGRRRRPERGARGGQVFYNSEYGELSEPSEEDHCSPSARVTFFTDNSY
T1 sequence (P16234 24-1089): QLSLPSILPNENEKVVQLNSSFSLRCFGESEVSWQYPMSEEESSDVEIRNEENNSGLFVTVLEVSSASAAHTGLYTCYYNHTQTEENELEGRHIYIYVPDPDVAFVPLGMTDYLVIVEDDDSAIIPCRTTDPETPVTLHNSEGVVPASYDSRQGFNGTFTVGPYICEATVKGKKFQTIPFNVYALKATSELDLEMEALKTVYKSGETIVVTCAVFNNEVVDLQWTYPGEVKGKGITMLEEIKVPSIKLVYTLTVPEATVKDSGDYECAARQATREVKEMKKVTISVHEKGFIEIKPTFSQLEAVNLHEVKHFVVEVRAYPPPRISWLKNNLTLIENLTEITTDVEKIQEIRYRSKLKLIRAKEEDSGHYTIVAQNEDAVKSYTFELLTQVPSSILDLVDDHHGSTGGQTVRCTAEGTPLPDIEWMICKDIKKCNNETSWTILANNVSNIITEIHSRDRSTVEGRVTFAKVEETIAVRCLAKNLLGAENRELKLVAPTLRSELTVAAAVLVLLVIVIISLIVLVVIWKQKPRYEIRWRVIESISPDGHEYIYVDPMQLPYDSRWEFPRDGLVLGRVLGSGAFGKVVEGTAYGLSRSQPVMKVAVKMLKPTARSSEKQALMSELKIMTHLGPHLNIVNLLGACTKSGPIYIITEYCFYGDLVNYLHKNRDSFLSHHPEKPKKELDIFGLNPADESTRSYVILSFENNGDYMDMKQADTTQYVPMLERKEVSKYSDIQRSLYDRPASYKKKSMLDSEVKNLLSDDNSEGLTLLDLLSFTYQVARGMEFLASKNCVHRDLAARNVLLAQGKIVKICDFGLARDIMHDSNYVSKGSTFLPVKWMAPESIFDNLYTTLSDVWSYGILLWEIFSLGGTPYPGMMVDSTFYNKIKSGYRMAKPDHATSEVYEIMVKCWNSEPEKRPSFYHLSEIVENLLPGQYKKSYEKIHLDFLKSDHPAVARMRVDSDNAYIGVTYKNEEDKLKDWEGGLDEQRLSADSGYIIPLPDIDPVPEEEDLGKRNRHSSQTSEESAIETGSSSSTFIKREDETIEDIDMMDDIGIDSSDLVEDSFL

SMILES: COCc1ccc(NC(=O)c2c(C#CCN3CCOCC3)n(C3(C)CC3)c3ncnc(N)c23)cc1 [Vepafestinib, 4-amino-N-[4-(methoxymethyl)phenyl]-7-(1-methylcyclopropyl)-6-[3-(morpholin-4-yl)prop-1-yn-1-yl]-7H-pyrrolo[2,3-d]pyrimidine-5-carboxamide]
- Animal Weight, Mean ([1]; Ba/F3-KIF5B::RET G810R (Fig 8f), Vepafestinib 10 mg/kg BID, day 11): 25.72 g
- Animal Weight, Mean ([1]; Ba/F3-KIF5B::RET G810R (Fig 8f), Vepafestinib 10 mg/kg BID, day 15): 25.22 g
- Animal Weight, Mean ([1]; Ba/F3-KIF5B::RET G810R (Fig 8g), Vepafestinib 50 mg/kg BID, day 1): 23.9 g
- Animal Weight, Mean ([1]; Ba/F3-KIF5B::RET G810R (Fig 8g), Vepafestinib 50 mg/kg BID, day 4): 24.7 g
- Animal Weight, Mean ([1]; Ba/F3-KIF5B::RET G810R (Fig 8g), Vepafestinib 50 mg/kg BID, day 8): 24.9 g
- Animal Weight, Mean ([1]; Ba/F3-KIF5B::RET G810R (Fig 8g), Vepafestinib 50 mg/kg BID, day 11): 24.3 g
- Animal Weight, Mean ([1]; Ba/F3-KIF5B::RET G810R (Fig 8g), Vepafestinib 50 mg/kg BID, day 15): 24.2 g
- Animal Weight (g), Mean ([1]; Ba/F3-KIF5B::RET tumor-bearing mice (Ext. Data Fig 8i), 50 mg/kg BID, day 1): 25.8 g
- Animal Weight (g), Mean ([1]; Ba/F3-KIF5B::RET tumor-bearing mice (Ext. Data Fig 8i), 50 mg/kg BID, day 4): 26.2 g
- Animal Weight (g), Mean ([1]; Ba/F3-KIF5B::RET tumor-bearing mice (Ext. Data Fig 8i), 50 mg/kg BID, day 8): 26.0 g
- Animal Weight (g), Mean ([1]; Ba/F3-KIF5B::RET tumor-bearing mice (Ext. Data Fig 8i), 50 mg/kg BID, day 11): 25.3 g
- Animal Weight (g), Mean ([1]; Ba/F3-KIF5B::RET tumor-bearing mice (Ext. Data Fig 8i), 50 mg/kg BID, day 15): 26.9 g
- Animal Weight (g), Mean ([1]; Ba/F3-KIF5B::RET tumor-bearing mice (Ext. Data Fig 8h), 50 mg/kg BID, day 1): 28.4 g
- Animal Weight (g), Mean ([1]; Ba/F3-KIF5B::RET tumor-bearing mice (Ext. Data Fig 8h), 50 mg/kg BID, day 4): 28.5 g
- Animal Weight (g), Mean ([1]; Ba/F3-KIF5B::RET tumor-bearing mice (Ext. Data Fig 8h), 50 mg/kg BID, day 8): 29.3 g
- Animal Weight (g), Mean ([1]; Ba/F3-KIF5B::RET tumor-bearing mice (Ext. Data Fig 8h), 50 mg/kg BID, day 11): 29.0 g
- Animal Weight (g), Mean ([1]; Ba/F3-KIF5B::RET tumor-bearing mice (Ext. Data Fig 8h), 50 mg/kg BID, day 15): 29.0 g
- effect on animal health or animal weight ([1]; ECLC5B xenograft, all dosages, P > 0.05): No dosage of vepafestinib had any adverse effect
- Animal Weight ([1]; ECLC5 Xenografts, 25 mg/kg BID, treatment day 7, individual animals, 25 mg/kg): 24 g (2×) and 22 g and 21 g and 27 g
- Animal Weight ([1]; ECLC5 Xenografts, 25 mg/kg BID, treatment day 11, individual animals, 25 mg/kg): 24 g and 22 g
- Animal Weight ([1]; ECLC5 Xenografts, 50 mg/kg BID, treatment day 7, individual animals, 50 mg/kg): 20 g and 23 g (2×) and 21 g and 22 g
- Animal Weight ([1]; ECLC5 Xenografts, 50 mg/kg QD, treatment day 7, individual animals, 50 mg/kg): 22 g (2×) and 21 g and 23 g and 24 g
- Animal Weight ([1]; ECLC5 Xenografts, 100 mg/kg QD, treatment day 7, individual animals, 100 mg/kg): 22 g (3×) and 24 g and 25 g
- Animal Weight (g), Mean ([1]; LC-2/ad xenograft mice, 25 mg/kg BID, day 0): 25.9 g
- Animal Weight (g), Mean ([1]; LC-2/ad xenograft mice, 25 mg/kg BID, day 4): 25.1 g
- Animal Weight (g), Mean ([1]; LC-2/ad xenograft mice, 25 mg/kg BID, day 8): 24.6 g
- Animal Weight (g), Mean ([1]; LC-2/ad xenograft mice, 25 mg/kg BID, day 11): 24.4 g
- Animal Weight (g), Mean ([1]; LC-2/ad xenograft mice, 25 mg/kg BID, day 15): 23.5 g
- Animal Weight (g), Mean ([1]; LC-2/ad xenograft mice, 50 mg/kg BID, day 0): 25.1 g
- Animal Weight (g), Mean ([1]; LC-2/ad xenograft mice, 50 mg/kg BID, day 4): 25.3 g
- Animal Weight (g), Mean ([1]; LC-2/ad xenograft mice, 50 mg/kg BID, day 8): 24.2 g
- Animal Weight (g), Mean ([1]; LC-2/ad xenograft mice, 50 mg/kg BID, day 11): 24.4 g
- Animal Weight (g), Mean ([1]; LC-2/ad xenograft mice, 50 mg/kg BID, day 15): 23.5 g
- Animal Weight (g), Mean ([1]; LC-2/ad xenograft mice, 50 mg/kg QD, day 0): 25.0 g
- Animal Weight (g), Mean ([1]; LC-2/ad xenograft mice, 50 mg/kg QD, day 4): 24.8 g
- Animal Weight (g), Mean ([1]; LC-2/ad xenograft mice, 50 mg/kg QD, day 8): 24.7 g
- Animal Weight (g), Mean ([1]; LC-2/ad xenograft mice, 50 mg/kg QD, day 11): 25.0 g
- Animal Weight (g), Mean ([1]; LC-2/ad xenograft mice, 50 mg/kg QD, day 15): 24.3 g
- Animal Weight ([1]; NIH-3T3-CCDC6::RET xenografts, 25 mg/kg BID, day 0, 25 mg/kg): 22 g and 21 g and 24 g
- Animal Weight ([1]; NIH-3T3-CCDC6::RET xenografts, 25 mg/kg BID, day 2, 25 mg/kg): 23 g and 21 g and 22 g
- Animal Weight ([1]; NIH-3T3-CCDC6::RET xenografts, 25 mg/kg BID, day 5, 25 mg/kg): 23 g and 22 g and 24 g
- Animal Weight ([1]; NIH-3T3-CCDC6::RET xenografts, 25 mg/kg BID, day 8, 25 mg/kg): 23 g and 22 g
- Animal Weight ([1]; NIH-3T3-CCDC6::RET xenografts, 25 mg/kg QD, day 0, 25 mg/kg): 24 g and 22 g and 23 g and 21 g
- Animal Weight ([1]; NIH-3T3-CCDC6::RET xenografts, 25 mg/kg QD, day 2, 25 mg/kg): 25 g and 24 g and 22 g
- Animal Weight ([1]; NIH-3T3-CCDC6::RET xenografts, 25 mg/kg QD, day 5, 25 mg/kg): 22 g and 23 g and 24 g
- Animal Weight ([1]; NIH-3T3-CCDC6::RET xenografts, 25 mg/kg QD, day 8, 25 mg/kg): 25 g and 23 g and 24 g
- Animal Weight ([1]; NIH-3T3-CCDC6::RET xenografts, 50 mg/kg BID, day 0, 50 mg/kg): 22 g and 19 g and 21 g
- Animal Weight ([1]; NIH-3T3-CCDC6::RET xenografts, 50 mg/kg BID, day 2, 50 mg/kg): 20 g and 24 g and 23 g and 21 g and 22 g
- Animal Weight ([1]; NIH-3T3-CCDC6::RET xenografts, 50 mg/kg BID, day 5, 50 mg/kg): 21 g and 24 g and 23 g and 20 g
- Animal Weight ([1]; NIH-3T3-CCDC6::RET xenografts, 50 mg/kg BID, day 8, 50 mg/kg): 21 g and 23 g and 24 g
- Animal Weight ([1]; NIH-3T3-CCDC6::RET xenografts, 50 mg/kg QD, day 0, 50 mg/kg): 22 g and 21 g
- Animal Weight ([1]; NIH-3T3-CCDC6::RET xenografts, 50 mg/kg QD, day 2, 50 mg/kg): 24 g and 23 g
- Animal Weight ([1]; NIH-3T3-CCDC6::RET xenografts, 50 mg/kg QD, day 5, 50 mg/kg): 23 g and 24 g
- Animal Weight ([1]; NIH-3T3-CCDC6::RET xenografts, 50 mg/kg QD, day 8, 50 mg/kg): 24 g and 25 g
- Animal Weight ([1]; NIH-3T3-CCDC6::RET xenografts, 100 mg/kg QD, day 0, 100 mg/kg): 22 g and 21 g and 20 g and 19 g
- Animal Weight ([1]; NIH-3T3-CCDC6::RET xenografts, 100 mg/kg QD, day 2, 100 mg/kg): 23 g and 22 g and 19 g
- Animal Weight ([1]; NIH-3T3-CCDC6::RET xenografts, 100 mg/kg QD, day 5, 100 mg/kg): 23 g and 22 g and 24 g and 21 g
- Animal Weight ([1]; NIH-3T3-CCDC6::RET xenografts, 100 mg/kg QD, day 8, 100 mg/kg): 23 g and 22 g and 24 g and 21 g
- raw viability signal (Source Data Fig. 3b-c) (MMNK1 cholangiocytes; 0.01 nM): 15390 and 15865.6
- raw viability signal (Source Data Fig. 3b-c) (MMNK1 cholangiocytes; 0.1 nM): 14815.4 and 16483.3
- raw viability signal (Source Data Fig. 3b-c) (MMNK1 cholangiocytes; 1 nM): 13973.1 and 15595
- raw viability signal (Source Data Fig. 3b-c) (MMNK1 cholangiocytes; 10 nM): 13948.4 and 14647.6
- raw viability signal (Source Data Fig. 3b-c) (MMNK1 cholangiocytes; 100 nM): 13576.5 and 14248.6
- raw viability signal (Source Data Fig. 3b-c) (MMNK1 cholangiocytes; 1000 nM): 9712.9 and 10190.9
- raw viability signal (Source Data Fig. 3b-c) (MMNK1 cholangiocytes; 10000 nM): 13883.8 and 13507.1
- Tumor Volume Mean ([2]; Fig. 7c Ba/F3-KIF5B::RET G810R, vepafestinib 10 mg/kg BID, day 1): 153.82
- Tumor Volume Mean ([2]; Fig. 7c Ba/F3-KIF5B::RET G810R, vepafestinib 10 mg/kg BID, day 4): 151.29
- Tumor Volume Mean ([2]; Fig. 7c Ba/F3-KIF5B::RET G810R, vepafestinib 10 mg/kg BID, day 8): 262.19
- Tumor Volume Mean ([2]; Fig. 7c Ba/F3-KIF5B::RET G810R, vepafestinib 10 mg/kg BID, day 11): 374.99
- Tumor Volume Mean ([2]; Fig. 7c Ba/F3-KIF5B::RET G810R, vepafestinib 10 mg/kg BID, day 15): 551.42
- Tumor Volume Mean ([2]; Fig. 7d Ba/F3-KIF5B::RET G810R, vepafestinib 50 mg/kg BID, day 1): 158.4
- Tumor Volume Mean ([2]; Fig. 7d Ba/F3-KIF5B::RET G810R, vepafestinib 50 mg/kg BID, day 4): 122.1
- Tumor Volume Mean ([2]; Fig. 7d Ba/F3-KIF5B::RET G810R, vepafestinib 50 mg/kg BID, day 8): 133.3
- Tumor Volume Mean ([2]; Fig. 7d Ba/F3-KIF5B::RET G810R, vepafestinib 50 mg/kg BID, day 11): 139.6
- Tumor Volume Mean ([2]; Fig. 7d Ba/F3-KIF5B::RET G810R, vepafestinib 50 mg/kg BID, day 15): 173.1
- % Inhibiton PDGFRα [3]: 12.4%
- % Inhibiton FLT4 [4]: 46.9%
- kinases inhibited by >50% [5]: one and RET was the only kinase inhibited by >50%
